# What was measured:
# [1] = system: BM-MDSCs; conditions: differentiating BM-MDSCs, 3 μM or 10 μM, 72 hours
# Description: (§1) Bone marrow cells were isolated by flushing the tibia and femurs of wild-type C57BL/6N mice. […] To generate BM-MDSCs, 3×10^6 cells were plated in a 6-well dish and incubated at 37° C., 5% CO2 for 96 hours. For treatment, drugs were administered at either 3 μM or 10 μM concentrations and added to the BM-MDSC cell culture well 24 hours after plating.
# Protein concentration was quantified using a BCA protein assay kit (Thermo #A53225). […] of protein diluted with 1×LDS sample buffer (Life Technologies #B0008) and 1×sample reducing agent (Life Technologies #B0009), were denatured at 95° C. for 5 minutes. Denatured T cell protein was resolved using a 10% Bolt Bis-Tris plus protein gel (Thermo #NW00102BOX) and denatured BM-MDSC protein was resolved using an 8% Bolt Bis-Tris plus protein gel (Thermo #NW00082BOX). Gels were transferred to a PVDF membrane (Invitrogen #IB401002) using a seven-minute P3 program on an Invitrogen iBlot dry transfer system. Membranes were then blocked for one hour using 5% nonfat dry milk in TBS-T, washed three times with TBS-T and probed with primary antibody diluted with 5% BSA in TBS-T overnight at 4° C. with gentle rocking. Primary antibody was removed, and membranes were washed three times with TBS-T followed by secondary antibody diluted in TBS-T at room temperature for one hour with gentle rocking. […]
# [2] = system: CD8 T cells; assay: CD8 T cell activation markers by flow cytometry; format: cell-based, mouse; conditions: 72 hours
# Description: Lymph nodes and spleen were isolated from wild-type C57BL/6N mice. Tissue was mechanically dissociated with the back of a syringe plunger and passed through a […] filter. […] Treated cells were incubated at 37° C., 5% CO2 for the designed study duration. […] After staining, cells were pelleted, resuspended and run by a BD FACSymphony A3 flow cytometer.
# [3] = system: BM-MDSCs; assay: XFe ATP rate assay, BM-MDSCs; format: cell-based, mouse; conditions: 10 μM, 72 hours
# Description: as §1
# Treated CD8 T cell were prepared following the in vitro T cell activation method and incubated for 72 hours at 37° C., 5% CO2. Treated BM-MDSCs were prepared followed the in vitro BM-MDSCs differentiation method. The XFe ATP rate assay preparation and analysis was conducted following the manufacturer's user guide and instructions. […] Treated cells were removed from culture, pelleted and resuspended in warm assay medium at a concentration of 3×10^6 cells/ml (1.5×10^5 cells/well) for CD8 T cells and 2.6×10^6 cells/ml (1.3×10^5 cells/well) for BM-MDSCs. Cells were adhered to the culture plate by centrifugation 200×G, for one minute with zero brake per the manufacturer's instructions for immobilization of non-adherent cells (Agilent, Santa Clara, CA). […] Results were procured using the Seahorse XF real-time ATP rate assay report generator.
# [4] = system: B16; assay: In vivo adoptive cellular transfer, pmel-I, B16 tumor; set-up: species or system mouse; conditions: T cells pre-treated with 10 μM; B16 tumor bearing mice; vs sham and DMSO pre-treated
# Description: C57BL/6N mice were injected with 3×10^5 B16-OVA or B16 subcutaneously in the right flank. Five days after injection, mice were administered 200 μg cyclophosphamide monohydrate (Sigma #C73971G) dissolved in PBS by intraperitoneal injection to induce minor lymphodepletion. 48 hours after lymphodepletion, mice were intravenously adoptively transferred 2.5×10^6 CD8 OT-I or CD8 […] pre-treated ex vivo following the in vitro T cell activation method. Tumor growth rates were determined by tumor volume measurement beginning on day four and continuing three times per week for the study duration. Tumor volumes were determined by the ellipsoid formula: [(Length×Width^2)/2]. At the end of study, tumors were either fixed in 10% formalin or dissociated into a single-cell suspension for flow cytometry. Single-cell suspension was performed by chopping tumor tissue with scissors followed by a 30-minute incubation at 37° C. with 100 µg/ml DNase I (Roche #10104159001) and 0.5 U/ml Liberase (Roche #05401127001) in PBS. Solution was then diluted with cRPMI-1640 and passed through a 70 μm cell strainer, pelleted and resuspended in ACK lysis buffer to remove erythrocytes. Cells were then counted, filtered through a 70 μm cell strainer, and 10×10^6 cells were aliquoted and stained following the immune profiling by flow cytometry method.
# [5] = system: adoptively transferred CD8 OT-I T cells; assay: Immune profiling and proliferation of in vivo vaccinated CD8 T cells; set-up: species or system mouse; conditions: for OT-I CD8 T cell proliferation, lymph node: vehicle MC 49.37%; for effector/memory CD8 OT-I T cells, splenic compartment: vehicle MC 12.53%; for adoptively transferred cells expressing PD-1, lymph node: vehicle MC 12.58%; for effector/memory CD8 OT-I T cells, lymph node: vehicle MC 23.11%; for OT-I CD8 T cell proliferation, splenic compartment: vehicle MC 30.68%; for naïve CD8 OT-I T cells, splenic compartment: vehicle MC 46.68%; for naïve CD8 OT-I T cells, lymph node: vehicle MC […]
# Description: Five hours later, mice were vaccinated by subcutaneous injection with […] (SEQ ID NO: 1) in IFA. 16 hours after vaccination, mice were administered 30 mg/kg or 90 mg/kg GLPG1205 suspended in 0.5% methylcellulose (Sigma #M0430100G) with 0.5% Tween-80 (Sigma #P4780100ML) (MC) orally once daily for three days. 96 hours post-vaccination, lymph node and spleen tissue were isolated for analysis. Single-cell suspensions were treated with ACK lysis to remove red blood cells, and then stained following the immune profiling by flow cytometry method. Treatment effectiveness was determined by the percent proliferation and PD-1 expression of adoptively transferred cells.
# [6] = system: B16-OVA; assay: In vivo therapeutic vaccination and tumor analysis; set-up: species or system mouse; conditions: 30 mg/kg orally, with SIINFEKL in IFA vaccination and boosts
# Description: C57BL/6N mice were injected with 3×10^5 B16-OVA subcutaneously in the right flank. Five days after injection, mice were administered 200 μg cyclophosphamide dissolved in PBS by intraperitoneal injection to induce minor lymphodepletion. 48 hours after lymphodepletion, mice were intravenously adoptively transferred 2.5×10^6 labeled CD8 OT-I T cells. […]. Tumor growth rates were determined by tumor volume measurement beginning on day four and continuing three times per week for the study duration. Tumor volumes were determined by the ellipsoid formula: [(Length×Width^2)/2].
smiles,measurement,setting,value
"O=c1nc(OC[C@@H]2COCCO2)cc2n1CCc1cc(C#CC3CC3)ccc1-2 [GLPG1205, 9-Cyclopropylethynyl-2-((S)-1-[1,4]dioxan-2-ylmethoxy)-6,7-dihydropyrimido[6,1-a]isoquinolin-4-one]",GPR84 expression,[1],only neared statistical significance
same,"CD25 expression, increase vs DMSO",[2]; 3 μM,21%
same,"CD69 expression, increase vs DMSO",[2]; 3 μM,11.24%
same,"CTLA-4, increase vs DMSO",[2]; 3 μM,50.31%
same,"LAG-3, increase vs DMSO",[2]; 3 μM,11.72%
same,"PD-1, increase vs DMSO",[2]; 3 μM,10.02%
same,"intracellular IFNγ, increase vs DMSO",[2]; 3 μM,51.23%
same,"CD25 expression, increase vs DMSO",[2]; 10 μM,25.58%
same,"CD69 expression, increase vs DMSO",[2]; 10 μM,14.59%
same,"CTLA-4, increase vs DMSO",[2]; 10 μM,81.92%
same,"LAG-3, increase vs DMSO",[2]; 10 μM,13.15%
same,"PD-1, increase vs DMSO",[2]; 10 μM,13.91%
same,"intracellular IFNγ, increase vs DMSO",[2]; 10 μM,61.55%
same,energetic phenotype (energetic map),[3],glycolytic-predominant quiescent phenotype
same,percent of ATP generated by glycolysis,[3]; DMSO 39.85%,45.55%
same,percent of ATP generated by OXPHOS,[3]; DMSO 60.15%,54.45%
same,ATP production rate through mitochondrial OXPHOS,[3]; DMSO 690.95,537.83 pmol/min
same,total ATP production rate,[3]; DMSO control 1149.1,987.48 pmol/min
same,ECAR and PER,[3]; vs DMSO,did not observe any changes
same,OCR,[3]; vs DMSO,overall reduction in OCR
same,tumor growth rate after adoptive transfer of pre-treated pmel-I CD8 T cells,[4],significant reduction in the tumor growth rate
same,"PD-1 expression, splenic compartment, compared to MC vehicle",[5]; 30 mg/kg or 90 mg/kg,no significant increase
same,"OT-I CD8 T cell proliferation, lymph node",[5]; 30 mg/kg orally once daily for 3 days,73.84%
same,"effector/memory CD8 OT-I T cells, splenic compartment",[5]; 30 mg/kg,30.12%
same,"adoptively transferred cells expressing PD-1, lymph node",[5]; 30 mg/kg,16.05%
same,"effector/memory CD8 OT-I T cells, lymph node",[5]; 30 mg/kg,47.38%
same,"OT-I CD8 T cell proliferation, splenic compartment",[5]; 30 mg/kg,50.99%
same,"naïve CD8 OT-I T cells, splenic compartment",[5]; 30 mg/kg,26.16%
same,"naïve CD8 OT-I T cells, lymph node",[5]; 30 mg/kg,12.87%
same,"OT-I CD8 T cell proliferation, lymph node",[5]; 90 mg/kg orally once daily for 3 days,74.56%
same,"adoptively transferred cells expressing PD-1, lymph node","[5]; 90 mg/kg, non-significant increase",15.75%
same,"effector/memory CD8 OT-I T cells, splenic compartment",[5]; 90 mg/kg,37.72%
same,"effector/memory CD8 OT-I T cells, lymph node",[5]; 90 mg/kg,53.97%
same,"OT-I CD8 T cell proliferation, splenic compartment",[5]; 90 mg/kg,59.35%
same,"naïve CD8 OT-I T cells, splenic compartment",[5]; 90 mg/kg,16.37%
same,"naïve CD8 OT-I T cells, lymph node",[5]; 90 mg/kg,9.48%
same,anti-tumor response (tumor growth rates) compared to the MC control group,[6],significantly stronger anti-tumor response

# — patent US20240358705A1, “COMPOSITIONS AND METHODS FOR TREATMENT OF CANCER” (Board of Supervisors of Louisiana State University and …, priority 2021, published 2024)
